Test results from patent US20240218066A1, “USE OF ANTI-PD-1 ANTIBODY IN COMBINATION WITH FIRST-LINE CHEMOTHERAPY IN TREATMENT OF ADVANCED NON-SMALL CELL LUNG CANCER” (SHANGHAI JUNSHI BIOSCIENCES CO., LTD., priority 2021, published 2024).

What was measured:
[1] = test system: patients with untreated advanced NSCLC; assay: Phase III clinical study, biomarker analysis (WES, TMB, gene mutations); format: in vivo, human
Description: As of Oct. 31, 2021, whole exome sequencing (WES) was performed on tumor biopsies and matched peripheral blood from 394 patients.
Tumor mutation burden (TMB) was determined by analyzing somatic mutations within coding regions of the human genome. The median TMB in each group was 6.6 mutations per million base pairs (Mb). Tumor tissue from 122 (26.2%) patients had more than 10 mutations/Mb, 72.1% of which was also PD-L1 TC≥1% (see FIG. 6a). […] However, compared to TMB-L (i.e., low TMB) patients (TMB<10 mutations/Mb). TMB-H patients had better PFS in the toripalimab group than in the placebo group (interaction P=0.026) (see FIGS. 7a and 7b).
Gene set enrichment analysis was performed on the relevant genes to identify over-represented biological pathways. […] In addition, patients with alterations in the IL-7 signaling pathway (HGF, IRS1, IRS2, and SMARCA4) or chromatin remodeling SWI/SNF complex (SMARCA4, SMARCA2, and PBRM1) also had better PFS results from combination therapy with toripalimab (see FIGS. 12-13).

[2] = test system: patients with untreated advanced NSCLC; assay: Phase III clinical study, efficacy assessed by the investigator according to RECIST 1.1; format: in vivo, human; parameters: reduction of the risk of progression or death, compared to standard chemotherapy / increase of PFS rate at 6 months compared to control group / increase of PFS rate at 12 months compared to control group / increase in ORR compared to control group: concentration or dose not given beside the values
Description: About 450 patients with advanced NSCLC not accompanied by EGFR-sensitive mutations and ALK fusions were randomly divided into two groups according to a 2:1 ratio, with the test group receiving toripalimab in combination with first-line standard chemotherapy and the control group receiving placebo in combination with first-line standard chemotherapy. Stratification was performed according to PD-L1 expression (TC≥1% vs TC<1%), smoking status (frequent smoking vs no smoking or little smoking), and pathological type (squamous cell carcinoma vs non-squamous cell carcinoma).
After randomization, the patients were subjected to treatment in the induction stage for 4-6 cycles, during which the patients received toripalimab/placebo+first-line standard chemotherapy. After the induction stage was over, the patients were subjected to treatment in the maintenance stage, during which patients with squamous cell carcinoma continued to receive toripalimab/placebo treatment until progressive disease, and patients with non-squamous cell carcinoma continued to receive toripalimab/placebo+pemetrexed treatment until progressive disease.
Tumor assessments were performed once every 6 weeks for the first 12 months of the study stage according to RECIST 1.1 and iRECIST; after 12 months, tumor assessments were performed every 9 weeks until progressive disease, initiation of a new anti-tumor therapy, intolerable toxicity, withdrawal of informed consent or death, 2 years of treatment with toripalimab, or other reasons as specified in the protocol, whichever occurred first.
Eligible subjects must (1) be patients with histologically and/or cytologically confirmed locally advanced (stage IIIB or IIIC) and stage IV non-small cell lung cancer that is inoperable and cannot receive radical concurrent chemoradiotherapy; (2) have at least one measurable lesion (according to RECIST 1.1); (3) have not received any systemic treatment (patients with recurrence more than 6 months after completion of prior neoadjuvant/adjuvant therapy may also be enrolled); (4) be aged between 18 and 75 years; (5) have ECOG of 0-1; (6) have an expected survival of ≥3 months; and (7) be available to provide tissue specimens for PD-L1 testing.
Unless otherwise specified, the efficacy analysis was based on the ITT set, which was analyzed by groups according to the treatment regimen to which patients were assigned at randomization.
The progression-free survival rate and median progression-free survival of the JS001+first-line standard treatment group and the placebo+first-line standard treatment group at different time points after the start of treatment were estimated by the Kaplan-Meier method, and Kaplan-Meier curves were plotted. The 95% confidence interval for progression-free survival rate at different time points (6 months and 1 year) was estimated using the Greenwood formula. The 95% confidence interval for median progression-free survival was estimated using the Brookmeyer-Crowley method where the log-log function conversion was used to reach normal approximation. Statistical test was performed on the inter-group difference by a stratified log-rank method for the total population. Statistical test was performed on the inter-group difference by a non-stratified log-rank method for the subpopulations. A stratified COX proportional hazards model was used to estimate the inter-group hazard ratio (HR) and the corresponding 95% confidence interval, and the tied events were processed by an exact method. Stratification analysis was performed using 3 stratification factors in the randomization process, including: (1) PD-L1 expression (TC≥1% vs TC<1%); (2) smoking status (frequent smoking vs no smoking or little smoking); and (3) pathological type (squamous cell carcinoma vs non-squamous cell carcinoma).
For analysis of secondary efficacy endpoints OS, DOR, and TTR, the method described above as applied to the primary efficacy endpoint PFS was used. […]

[3] = patients with BOR reaching CR or PR, overall population
[4] = patients with non-squamous cell carcinoma
[5] = patients with non-squamous cell carcinoma, listed as test group
[6] = patients with squamous cell carcinoma
[7] = patients with squamous cell carcinoma, listed as test group

JS001 + standard first-line chemotherapy: toripalimab 240 mg Q3W plus albumin-bound paclitaxel+carboplatin (squamous) or pemetrexed+cisplatin/carboplatin (non-squamous)
response rate (ORR) ([1]; ITT population, as of Oct. 31, 2021): 65.7%
ORR ([1]; TMB-H patients (TMB≥10 mutations/Mb), as of Oct. 31, 2021): 72.7%
median PFS ([1]; patients carrying FA/PI3K/Akt pathway mutations): 8.9 months
median PFS ([1]; patients carrying the SMARCA4 mutation (n=48), especially non-squamous cell subgroup (n=33)): 9.9 months
PFS rate at 6 months ([2]; ITT): 62.3%
PFS rate at 12 months ([2]; ITT): 32.6%
increase of PFS rate at 6 months compared to control group ([2]; ITT): 20.8%
increase of PFS rate at 12 months compared to control group ([2]; ITT): 19.5%
HR for PFS (test vs control) ([2]; ITT population, RECIST 1.1): 0.58
PFS prolonged by, compared to standard chemotherapy ([2]; ITT population, RECIST 1.1): 2.7 months
reduction of the risk of progression or death, compared to standard chemotherapy ([2]; ITT population, RECIST 1.1): 42%
median PFS ([2]; ITT population, RECIST 1.1, interim analysis as of Nov. 17, 2020): 8.3 months
Best overall response: Complete response (CR) ([2]; non-squamous cell carcinoma): 0 N (%)
Best overall response: Deletion ([2]; non-squamous cell carcinoma): 8 (4.9) N (%)
Best overall response: Not evaluable (NE) ([2]; non-squamous cell carcinoma): 0 N (%)
Best overall response: Partial response (PR) ([2]; non-squamous cell carcinoma): 95 (58.6) N (%)
Best overall response: Progressive disease (PD) ([2]; non-squamous cell carcinoma): 5 (3.1) N (%)
Objective response rate (ORR) ([2]; non-squamous cell carcinoma): 95 (58.6) N (%)
DCR ([2]; overall population): 90.9%
DOR prolonged by, compared to control group ([2]; overall population): 4.1 months
HR for DOR (test vs control) ([2]; overall population): 0.56
increase in ORR compared to control group ([2]; overall population): 21.7%
ORR ([2]; overall population, RECIST v1.1): 63.4%
median DOR [2, 3]: 8.3 months
median TTR [2, 3]: 1.5 months
HR for DOR (test vs control) [2, 4]: 0.63
HR for PFS (test vs control) [2, 4]: 0.59
ORR [2, 4]: 58.6%
increase in ORR compared to control group [2, 4]: 32.1%
median DOR (95% confidence interval) [2, 4]: 8.6 (6.9, NE) months
median TTR (95% confidence interval) [2, 4]: 1.4 (1.4, 1.9) months
median PFS ([2]; patients with non-squamous cell carcinoma, RECIST 1.1): 8.4 months
median DOR (95% confidence interval) [2, 5]: 8.6 months
median TTR (95% confidence interval) [2, 5]: 1.4 months
HR for DOR (test vs control) [2, 6]: 0.46
HR for PFS (test vs control) [2, 6]: 0.55
ORR [2, 6]: 68.7%
increase in ORR compared to control group [2, 6]: 9.8%
median DOR (95% confidence interval) [2, 6]: 6.9 (4.5, NE) months
median TTR (95% confidence interval) [2, 6]: 1.5 (1.4, 1.6) months
median PFS ([2]; patients with squamous cell carcinoma, RECIST 1.1): 7.1 months
median DOR (95% confidence interval) [2, 7]: 6.9 months
median TTR (95% confidence interval) [2, 7]: 1.5 months
Best overall response: Complete response (CR) ([2]; squamous cell carcinoma): 0 N (%)
Best overall response: Deletion ([2]; squamous cell carcinoma): 8 (5.4) N (%)
Best overall response: Not evaluable (NE) ([2]; squamous cell carcinoma): 1 (0.7) N (%)
Best overall response: Partial response (PR) ([2]; squamous cell carcinoma): 101 (68.7) N (%)
Best overall response: Progressive disease (PD) ([2]; squamous cell carcinoma): 6 (4.1) N (%)
Objective response rate (ORR) ([2]; squamous cell carcinoma): 101 (68.7) N (%)
